Consider 18 molecules from US10676465B2, “GLP-1 receptor agonists and uses thereof” (Pfizer Inc., priority 2018, dated 2020).

A word on the EC50: it is the midpoint of the concentration-response curve. What is called pEC50 is the negative decadic logarithm of the EC50, by convention in mol/L. By Emax is commonly meant the maximal effect, on the per cent scale that the assay sets.

Experiment [1] addresses human GLP-1R (Homo sapiens (Human), UniProt P43220, L260F). Nature of the experiment: CHO GLP-1R Clone C6 - Assay 2 (HTRF cAMP agonist assay, low receptor density). Particulars: for EC50: Assay 2 EC50 (nM); for EC50 / pEC50 / Assay 2 Emax (%): CHO GLP-1R Clone C6 (low receptor density); for EC50 / pEC50: cAMP HTRF, geometric mean; for pEC50: read-out: Assay 2 EC50; for Emax: read-out: Assay 2 Emax (%), CHO GLP-1R Clone C6 (low receptor density); for Emax / Assay 2 Emax (%): arithmetic mean, relative to saturating GLP-1 (1 μM). (TR-FRET usually uses a lanthanide donor and a delayed reading to cut background.)

For experiment [2], the target named is human GLP-1R (Homo sapiens, UniProt P43220, G168S). The experiment is described as follows: CHO GLP-1R Clone H6 - Assay 1 (HTRF cAMP agonist assay). The conditions noted are these: for pEC50: CHO GLP-1R Clone H6, cAMP HTRF, geometric mean; for Emax / Assay 1 Emax (%): CHO GLP-1R Clone H6, arithmetic mean, relative to saturating GLP-1 (1 μM). Format: cell-based.
Chain of human GLP-1R (Homo sapiens, UniProt P43220, G168S) (P43220 24-463 G168S limits assumed): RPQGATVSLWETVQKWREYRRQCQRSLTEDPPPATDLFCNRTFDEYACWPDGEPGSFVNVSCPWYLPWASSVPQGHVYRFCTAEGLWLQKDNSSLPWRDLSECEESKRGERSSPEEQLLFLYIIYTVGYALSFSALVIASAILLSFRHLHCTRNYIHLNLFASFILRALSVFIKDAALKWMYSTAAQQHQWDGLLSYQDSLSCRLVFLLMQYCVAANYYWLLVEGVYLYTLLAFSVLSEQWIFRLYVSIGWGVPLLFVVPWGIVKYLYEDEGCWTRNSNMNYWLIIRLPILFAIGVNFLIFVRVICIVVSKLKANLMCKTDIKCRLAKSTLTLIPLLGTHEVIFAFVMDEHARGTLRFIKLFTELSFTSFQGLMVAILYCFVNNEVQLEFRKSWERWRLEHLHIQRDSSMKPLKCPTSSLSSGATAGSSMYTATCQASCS
Description: GLP-1R-mediated agonist activity was determined with a cell-based functional assay utilizing an HTRF (Homogeneous Time-Resolved Fluorescence) cAMP detection kit (cAMP HI Range Assay Kit; CisBio cat #62AM6PEJ) that measures cAMP levels in the cell. The method is a competitive immunoassay between native cAMP produced by the cells and exogenous cAMP labeled with the dye d2. The tracer binding is visualized by a mAb anti-cAMP labeled with Cryptate. The specific signal (i.e. energy transfer) is inversely proportional to the concentration of cAMP in either standard or experimental sample.
The human GLP-1R coding sequence (NCBI Reference Sequence NP_002053.3, including naturally-occurring variant Gly168Ser) was subcloned into pcDNA3 (Invitrogen) and a cell line stably expressing the receptor was isolated (designated Clone H6).
Cells were removed from cryopreservation, re-suspended in 40 mL of Dulbecco's Phosphate Buffered Saline (DPBS—Lonza Cat #17-512Q) and centrifuged at 800×g for 5 minutes at 22° C. The cell pellet was then re-suspended in 10 mL of growth medium [DMEM/F12 1:1 Mixture with HEPES, L-Gln, 500 mL (DMEM/F12 Lonza Cat #12-719F), 10% heat inactivated fetal bovine serum (Gibco Cat #16140-071), 5 mL of 100× Pen-Strep (Gibco Cat #15140-122), 5 mL of 100×L-Glutamine (Gibco Cat #25030-081) and 500 μg/mL Geneticin (G418) (Invitrogen #10131035)]. A 1 mL sample of the cell suspension in growth media was counted on a Becton Dickinson ViCell to determine cell viability and cell count per mL. The remaining cell suspension was then adjusted with growth media to deliver 2000 viable cells per well using a Matrix Combi Multidrop reagent dispenser, and the cells were dispensed into a white 384 well tissue culture treated assay plate (Corning 3570). The assay plate was then incubated for 48 hours at 37° C. in a humidified environment in 5% carbon dioxide.
Varying concentrations of each compound to be tested (in DMSO) were diluted in assay buffer (HBSS with Calcium/Magnesium (Lonza/BioWhittaker cat #10-527F)/0.1% BSA (Sigma Aldrich cat # A7409-1L)/20 mM HEPES (Lonza/BioWhittaker cat #17-737E) containing 100 μM 3-isobutyl-1-methylxanthin (IBMX; Sigma cat #15879). The final DMSO concentration is 1%.
After 48 hours, the growth media was removed from the assay plate wells, and the cells were treated with 20 μL of the serially diluted compound in assay buffer for 30 minutes at 37° C. in a humidified environment in 5% carbon dioxide. Following the 30 minute incubation, 10 μL of labeled d2 cAMP and 10 μL of anti-cAMP antibody (both diluted 1:20 in cell lysis buffer; as described in the manufacturer's assay protocol) were added to each well of the assay plate. The plates were then incubated at room temperature and after 60 minutes, changes in the HTRF signal were read with an Envision 2104 multi-label plate reader using excitation of 330 nm and emissions of 615 and 665 nm. Raw data were converted to nM cAMP by interpolation from a cAMP standard curve (as described in the manufacturer's assay protocol) and the percent effect was determined relative to a saturating concentration of the full agonist GLP-17-36 (1 μM) included on each plate. EC50 determinations were made from agonist dose-response curves analyzed with a curve fitting program using a 4-parameter logistic dose response equation.

pEC50: −log10 of the molar value. Where two headings read alike, the source gives them in different places. Bounds are passed on as bounds.

Chain of human GLP-1R (Homo sapiens (Human), UniProt P43220, L260F) (P43220 24-463 L260F): as the sequence (P43220 24-463 G168S limits assumed) above, with S145G, L237F counted along it

Turning to `COCCn1c(CN2CCN(c3cccc4c3OC(c3ccc(Cl)cc3F)O4)CC2)nc2ccc(C(=O)O)cc21` (single isomer, unassigned) [Example 1, 2-({4-[2-(4-Chloro-2-fluorophenyl)-1,3-benzodioxol-4-yl]piperazin-1-yl}methyl)-1-(2-methoxyethyl)-1H-benzimidazole-6-carboxylic Acid], the EC50 on human GLP-1R [1] is more than 20000 nM. On human GLP-1R [2], this molecule showed a pEC50 of 6.06 and a maximal response (Emax) of 99%.
For the molecule `Cn1cc(CCn2c(CN3CCC(c4cccc5c4OC(C)(c4ccc(Cl)cc4F)O5)CC3)nc3ccc(C(=O)O)cc32)nn1` (centres unmarked) [Example 60, 2-({4-[2-(4-chloro-2-fluorophenyl)-2-methyl-1,3-benzodioxol-4-yl]piperidin-1-yl}methyl)-1-[2-(1-methyl-1H-1,2,3-triazol-4-yl)ethyl]-1H-benzimidazole-6-carboxylic acid], on human GLP-1R [1], the pEC50 is 6.62 and the Emax was 60%. Besides, on human GLP-1R [2], the pEC50 was 7.82 and the Emax is 82%.
The corresponding values for `COCCn1c(CN2CCC(c3cccc4c3OC(C)(c3ccccc3)O4)CC2)nc2ccc(C(=O)O)cc21` (centres unmarked) [Example 82, 1-(2-methoxyethyl)-2-{[4-(2-methyl-2-phenyl-1,3-benzodioxol-4-yl)piperidin-1-yl]methyl}-1H-benzimidazole-6-carboxylic acid] are 6.00, 83%, 7.33 and 83%.
In the same order, the values of `CCc1ccc(C2(C)Oc3cccc(C4CCN(Cc5nc6ccc(C(=O)O)cc6n5CCOC)CC4)c3O2)cc1` (centres unmarked) [Example 29, 2-({4-[2-(4-ethylphenyl)-2-methyl-1,3-benzodioxol-4-yl]piperidin-1-yl}methyl)-1-(2-methoxyethyl)-1H-benzimidazole-6-carboxylic acid] are 6.82, 93%, 8.28 and 87%.
In the same order, the values of `COCCn1c(CN2CCC(c3cccc4c3OC(C)(c3ccc(F)cc3)O4)CC2)nc2ccc(C(=O)O)cc21` (centres unmarked) [Example 38, 2-({4-[2-(4-fluorophenyl)-2-methyl-1,3-benzodioxol-4-yl]piperidin-1-yl}methyl)-1-(2-methoxyethyl)-1H-benzimidazole-6-carboxylic acid] are 6.62, 73%, 8.00 and 87%.
`CC1(c2ccc(C#N)cc2F)Oc2cccc(C3CCN(Cc4nc5ccc(C(=O)O)cc5n4Cc4ncco4)CC3)c2O1.N` (centres unmarked) [Example 99, ammonium 2-({4-[2-(4-cyano-2-fluorophenyl)-2-methyl-1,3-benzodioxol-4-yl]piperidin-1-yl}methyl)-1-(1,3-oxazol-2-ylmethyl)-1H-benzimidazole-6-carboxylate]: on human GLP-1R [1], the “Assay 2 Emax (%)” value was 91% and the pEC50 was 8.27. At human GLP-1R [2], the pEC50 is 8.55 and the “Assay 1 Emax (%)” value is given as 99%.
For the molecule `CC1(c2ccc(Cl)cc2F)Oc2cccc(C3CCN(Cc4nc5ccc(C(=O)O)cc5n4C[C@H]4CCCO4)CC3)c2O1` (stereo partly drawn) [Example 64, 2-({4-[2-(4-chloro-2-fluorophenyl)-2-methyl-1,3-benzodioxol-4-yl]piperidin-1-yl}methyl)-1-[(2R)-tetrahydrofuran-2-ylmethyl]-1H-benzimidazole-6-carboxylic acid], at human GLP-1R [1], the negative logarithm of the EC50 (pEC50) was 7.04 and the Emax turned out to be 80%. At human GLP-1R [2], this molecule gave a negative-log EC50 (pEC50) of 8.04 and an Emax of 94%.
In the same order, the values of `CC1(c2ccc(Cl)cc2F)Oc2cccc(C3CCN(Cc4nc5ccc(C(=O)O)cc5n4Cc4cn[nH]c4)CC3)c2O1` (centres unmarked) [Example 73, 2-({4-[2-(4-chloro-2-fluorophenyl)-2-methyl-1,3-benzodioxol-4-yl]piperidin-1-yl}methyl)-1-(1H-pyrazol-4-ylmethyl)-1H-benzimidazole-6-carboxylic acid] are 8.00, 100%, 8.77 and 98%.
In the case of `COCCn1c(CN2CCC(c3cccc4c3OC(C)(c3ccccc3C)O4)CC2)nc2ccc(C(=O)O)cc21` (centres unmarked) [Example 88, 1-(2-methoxyethyl)-2-({4-[2-methyl-2-(2-methylphenyl)-1,3-benzodioxol-4-yl]piperidin-1-yl}methyl)-1H-benzimidazole-6-carboxylic acid], at human GLP-1R [1], the pEC50 was 6.44 and the Emax is 91%. In addition, on human GLP-1R [2], the pEC50 was 7.77 and the Emax worked out at 86%.
For `CC1(c2ccc(Cl)cc2F)Oc2c(F)ccc(C3CCN(Cc4nc5ccc(C(=O)O)cc5n4C[C@@H]4CCO4)CC3)c2O1` (single isomer, unassigned) [Example 97], on human GLP-1R [1], the EC50 came out at 140 nM and the “Assay 2 Emax (%)” value came to 93%. Besides, on human GLP-1R [2], the pEC50 is 7.85 and the “Assay 1 Emax (%)” value is given as 86%.
As for `Cc1nccn1CCn1c(CN2CCC(c3cccc4c3OC(C)(c3ccc(Cl)cc3F)O4)CC2)nc2ccc(C(=O)O)cc21` (centres unmarked) [Example 62, 2-({4-[2-(4-chloro-2-fluorophenyl)-2-methyl-1,3-benzodioxol-4-yl]piperidin-1-yl}methyl)-1-[2-(2-methyl-1H-imidazol-1-yl)ethyl]-1H-benzimidazole-6-carboxylic acid], at human GLP-1R [1], the pEC50 was 7.09 and the Emax was 95%. At human GLP-1R [2], this molecule had a negative-log EC50 (pEC50) of 8.66 and a maximal response (Emax) of 94%.
`COCCn1c(CN2CCC(c3cccc4c3OC(c3ccc(Cl)cc3F)O4)CC2)nc2ccc(C(=O)O)cc21` (centres unmarked) [Example 21, 2-({4-[2-(4-chloro-2-fluorophenyl)-1,3-benzodioxol-4-yl]piperidin-1-yl}methyl)-1-(2-methoxyethyl)-1H-benzimidazole-6-carboxylic acid] returned an EC50 on human GLP-1R [1] of more than 20000 nM. Further, the pEC50 on human GLP-1R [2] is less than 4.70.
Turning to `Cn1cc(Cn2c(CN3CCC(c4cccc5c4OC(C)(c4ccc(Cl)cc4F)O5)CC3)nc3ccc(C(=O)O)cc32)nn1` (centres unmarked) [Example 63, 2-({4-[2-(4-chloro-2-fluorophenyl)-2-methyl-1,3-benzodioxol-4-yl]piperidin-1-yl}methyl)-1-[(1-methyl-1H-1,2,3-triazol-4-yl)methyl]-1H-benzimidazole-6-carboxylic acid], on human GLP-1R [1], the pEC50 was 7.18 and the Emax amounted to 96%. In addition, on human GLP-1R [2], the pEC50 is 8.28 and the Emax worked out at 91%.
For the molecule `COCCn1c(CN2CCC(c3cccc4c3OC(C)(c3ccc(C#N)cn3)O4)CC2)nc2ccc(C(=O)O)cc21` (centres unmarked) [Example 93, ammonium 2-({4-[2-(5-cyanopyridin-2-yl)-2-methyl-1,3-benzodioxol-4-yl]piperidin-1-yl}methyl)-1-(2-methoxyethyl)-1H-benzimidazole-6-carboxylate], the pEC50 on human GLP-1R [1] was less than 4.70. For the same molecule, on human GLP-1R [2], the pEC50 was less than 5.19 and the Emax turned out to be 84%.
In the case of `CN(C)C(=O)CCn1c(CN2CCC(c3cccc4c3OC(C)(c3ccc(Cl)cc3F)O4)CC2)nc2ccc(C(=O)O)cc21` (centres unmarked) [Example 59, 2-({4-[2-(4-chloro-2-fluorophenyl)-2-methyl-1,3-benzodioxol-4-yl]piperidin-1-yl}methyl)-1-[3-(dimethylamino)-3-oxopropyl]-1H-benzimidazole-6-carboxylic acid], on human GLP-1R [1], the pEC50 is 6.17 and the maximum response (Emax) is 53%. At human GLP-1R [2], this molecule had a pEC50 of 7.13 and an Emax of 85%.
The corresponding values for `CC1(c2ccc(Cl)cc2F)Oc2cccc(C3CCN(Cc4nc5ccc(C(=O)O)cc5n4Cc4ccccn4)CC3)c2O1` (centres unmarked) [Example 45, 2-({4-[2-(4-chloro-2-fluorophenyl)-2-methyl-1,3-benzodioxol-4-yl]piperidin-1-yl}methyl)-1-(pyridin-2-ylmethyl)-1H-benzimidazole-6-carboxylic acid] are 6.66, 79%, 8.00 and 81%.
The corresponding values for `CC1(c2ccc(Cl)cc2F)Oc2cccc(C3CCN(Cc4nc5ccc(C(=O)O)cc5n4Cc4cccnc4)CC3)c2O1` (centres unmarked) [Example 65, 2-({4-[2-(4-chloro-2-fluorophenyl)-2-methyl-1,3-benzodioxol-4-yl]piperidin-1-yl}methyl)-1-(pyridin-3-ylmethyl)-1H-benzimidazole-6-carboxylic acid] are 7.96, 99%, 8.92 and 99%.
For `COCCn1c(CN2CCN(c3cccc4c3OC(C)(c3ccc(Cl)cc3F)O4)CC2)nc2ccc(C(=O)O)cc21` (centres unmarked) [Example 19, 2-({4-[2-(4-chloro-2-fluorophenyl)-2-methyl-1,3-benzodioxol-4-yl]piperazin-1-yl}methyl)-1-(2-methoxyethyl)-1H-benzimidazole-6-carboxylic acid], on human GLP-1R [1], the pEC50 is 7.60 and the maximal response (Emax) is 100%. Besides, on human GLP-1R [2], the pEC50 was 8.92 and the Emax came out at 87%.
